In assay [1] the test system is CHO cell line producing a recombinant IgG2 monoclonal antibody. The experiment in a line: Batch culture in serum-free DMEM/F12 with supplemental polyamines: viable cell density and viability. The conditions noted are these: 3 days; for Culture viability versus cells without supplemental polyamines (FIG. 1b) / Viable cell density versus basal DMEM/F12 media (FIG. 1a): supplemental polyamine. Format: cell-based, Chinese hamster. As for the experimental part: To test the effect of high concentration polyamine media formulations on cell culture performance a CHO cell line producing a recombinant IgG2 monoclonal antibody was seeded at 2.5×10^5 cells/ml in serum-free DMEM/F12 (SAFC, Lenexa, Kans.). DMEM/F12 contains 503 nM putrescine as a component of the commercial formulation. […] Cells were maintained in suspension culture for three days at 36° C. in 5% CO2. Total cell density and viable cell density were measured using a Guava Easy-Cyte™ flow cytometer and Guava Viacount® Flex reagent (Hayward, Calif.) according to manufacture's instructions.
Following three days culture in the polyamine-supplemented-DMEM/F12 media, viable cell density and culture viability were measured, see FIGS. 1a and 1b. Mean viability is presented as percent of viable cells and viable cell density is presented as number of cells/ml.

The test system is the same in assay [2]. The conditions noted are these: 6 days, VM-Soy. As for the experimental part:
VM-Soy basal media contains 0.98 μM (0.1620 mg/l) putrescine as a component of its formulation. […] Cells were seeded at 2.5×10^5 cells/ml and maintained for six days at 36° C. in 5% CO2. Viable cell density and cell viability were measured as described above.
Antibody titer was measured by immunoturbidietric analysis using a Poly-Chem® analyzer and High Sensitivity IgG reagents (Polymedco, Cortlandt Manor, N.Y.) according to the manufacturer's instructions.

Assay [3] deals with four different recombinant monoclonal IgG2 antibody-producing CHO cell lines. The conditions noted are these: fed-batch, 10 μM spermine. As for the experimental part:
The medium was an enriched formulation of DMEM/F12 medium (ingredients supplied by SAFC, Lenexa, Kans.). The medium contained putrescine at a concentration of 0.014 mM. […] Cells were maintained in suspension culture for 11 days at 36° C., 5% CO2. Cultures were fed an enriched feed medium on the fourth, seventh, and ninth days of culture. The feed volume was equal to nine percent of the initial batch culture volume. […] Glucose was also fed on the fourth, seventh, and ninth days of culture in order to prevent depletion. Viable cell density and cell viability were measured as described above.
The titer of the antibodies produced in cell culture was determined using POROS® (Applied Biosystems) Protein A chromotagraphy HPLC chromotagraphy.

Assay [4] concerns CHO cell line producing a recombinant IgG1 monoclonal antibody. The conditions noted are these: fed-batch. As for the experimental part: The medium was an enriched formulation of DMEM/F12 that was less concentrated than the media used in Example 3. The medium already contained putrescine at 0.014 mM. […] Cells were maintained in suspension culture for 8 days at 36° C., 5% CO2. Cultures were fed a rich medium on the fourth day of culture. […] The feed volume was equal to seven percent of the initial batch culture volume. The feed medium contained putrescine and delivered 0.0019 mM putrescine to the cultures as a result of each feed. Glucose was also fed on the fourth day of culture in order to prevent depletion. Viable cell density and cell viability were measured as described above.
Antibody titer was measured by immunoturbidimetric analysis using a Poly-Chem® analyzer and High Sensitivity IgG reagents (Polymedco, Cortlandt Manor, N.Y.) according to the manufacturer's instructions.

Assay [5] deals with Human-human hybridoma HB4C5 cells. The conditions noted are these: spermine 2.4 mM or higher; increased over the control; cited from earlier work.

Consider `Cl.Cl.NCCCCN` [putrescine, putrescine dihydrochloride], for which, in assay [1], the “Culture viability versus cells without supplemental polyamines (FIG. 1b)” value is “higher” and the “Viable cell density versus basal DMEM/F12 media (FIG. 1a)” value is listed as “higher”.
Consider `NCCCCNCCCN` [spermidine, spermidine tetrachdrochloride], for which, in assay [1], the “Culture viability versus cells without supplemental polyamines (FIG. 1b)” value is listed as “higher” and the “Viable cell density versus basal DMEM/F12 media (FIG. 1a)” value is recorded as “higher”.
For `Cl.Cl.Cl.Cl.NCCCNCCCCNCCCN` [spermine, spermine tetrahydrochloride], the “Spermine concentration giving the greatest increase in cell viability (FIG. 1b)” value in assay [1] (DMEM/F12) was found to be 50 µM. In addition, in assay [1] (DMEM/F12, 10-50 μM spermine), the “Cell viability increase compared to unsupplemented control media” value is reported as “up to 20%” and the “Viable cell density increase compared to unsupplemented control media” value is listed as “up to 49%”. Further, in assay [1], the “Culture viability versus cells without supplemental polyamines (FIG. 1b)” value is on record as “higher” and the “Viable cell density versus basal DMEM/F12 media (FIG. 1a)” value is recorded as “higher”. For the same compound, in assay [2], the “Spermine concentration giving the greatest increase in antibody concentration (FIG. 2c)” value was found to be 50 µM and the “Spermine concentration giving the greatest increase in viable cell density (FIG. 2a)” value was 50 µM. For the same compound, in assay [2] (50 μM spermine), the “Antibody titer increase (greatest)” value stood at 9%, the “Cell viability increase (greatest)” value was determined as 29% and the “Viable cell density increase (greatest)” value is listed as 23%. Further, in assay [2] (10-200 μM spermine), the “Antibody titer increase compared to the untreated control” value was 5-9%, the “Cell viability increase compared to the unsupplemented control” value is 22-29% and the “Viable cell density increase compared to the unsupplemented control” value is recorded as 8-23%. Further, the “Antibody titer increase compared to the untreated controls (FIG. 3c)” value in assay [3] (range over four cell lines) was 7-17%. Further, in assay [3] (11 days), the “Cell viability versus control without spermine (FIG. 3b)” value is given as “largely unaffected” and the “Viable cell density versus control without spermine (FIG. 3a)” value is “greater”. Moreover, in assay [4] (0.1-500 μM spermine), the “Effect of spermine concentration on titer” value is “dose-dependent response”. Also, the “Viable cell density versus control (FIGS. 4a and 4b)” value in assay [4] (8 days, 0.1-500 μM spermine) is “greater”. The “Antibody titer increase compared to the untreated controls (FIG. 4d)” value in assay [4] (Day 8, 0.1-500 μM spermine) is reported as 7-17%. Moreover, the “Ending cell viability (FIG. 4c)” value in assay [4] (Day 8, 5-50 μM spermine) was “increased”. For the same compound, in assay [5], the Protein production result is on record as “less than 1 mg/l”.

The values are drawn from US20100221823A1, “METHOD FOR CULTURING MAMMALIAN CELLS TO IMPROVE RECOMBINANT PROTEIN PRODUCTION” (Amgen Inc., priority 2007, published 2010).
